Test system: Rattus norvegicus
Assay: Hypotensive activity by intravenous administration to rats
Format: functional

Row | SMILES | Log 1/ED50
1 | Cc1cccc(C)c1N=C1NCCN1 | 0.85
2 | c1ccc(NC2=NCCN2)cc1 | -2.1
3 | Fc1cccc(F)c1N=C1NCCN1 | -0.41
4 | Cc1ccccc1N=C1NCCN1 | -0.67
5 | Clc1ccccc1N=C1NCCN1 | 0.13
6 | Clc1cccc(Cl)c1NC1=NCCN1 [CLONIDINE] | 1.99
7 | c1cc2c(c(NC3=NCCN3)c1)CCCC2 [TRAMAZOLINE] | 0.47

— ChEMBL document CHEMBL1121491, “Ultraviolet photoelectron spectroscopy of cyclic amidines. 2. Electronic structure of clonidine and some related 2-(phenylimino)imidazolidines with alpha-adrenergic activity” (1980)
